According to ChEMBL document CHEMBL3994587, “An insight on synthetic and medicinal aspects of pyrazolo[1,5-a]pyrimidine scaffold” (Eur J Med Chem, 2017):
Values after ≈ are worked out from the molar mass of the structure shown.

Legend:
Pseudomonas aeruginosa = experiment: Antibacterial activity against Pseudomonas aeruginosa measured after 18 hrs by agar dilution method; type: functional
Escherichia coli [1] = experiment: Antibacterial activity against Escherichia coli measured after 18 hrs by agar dilution method; type: functional
Bacillus subtilis [2] = experiment: Antibacterial activity against Bacillus subtilis measured after 18 hrs by agar dilution method; type: functional
Staphylococcus aureus [3] = experiment: Antibacterial activity against Staphylococcus aureus measured after 18 hrs by agar dilution method; type: functional
Candida albicans = experiment: Antifungal activity against Candida albicans measured after 18 hrs by agar dilution method; type: functional
Serratia marcescens = experiment: Antibacterial activity against Serratia marcescens IMRU 70 assessed as zone of inhibition at 1 mg/ml measured after 24 hrs by agar diffusion method; type: functional; conditions: IMRU 70, 24 h, read-out: IZ
Sarcina = experiment: Antibacterial activity against Sarcina sp. NCTC 1117 assessed as zone of inhibition at 1 mg/ml measured after 24 hrs by agar diffusion method; type: functional; conditions: NCTC 1117, 24 h, read-out: IZ
Staphylococcus aureus [4] = experiment: Antibacterial activity against Staphylococcus aureus NCTC 7447 assessed as zone of inhibition at 1 mg/ml measured after 24 hrs by agar diffusion method; type: functional; conditions: NCTC 7447, 24 h, read-out: IZ
Escherichia coli [5] = experiment: Antibacterial activity against Escherichia coli NCTC 10416 assessed as zone of inhibition at 1 mg/ml measured after 24 hrs by agar diffusion method; type: functional; conditions: NCTC 10416, 24 h, read-out: IZ
Bacillus subtilis [6] = experiment: Antibacterial activity against Bacillus subtilis NCTC 10400 assessed as zone of inhibition at 1 mg/ml measured after 24 hrs by agar diffusion method; type: functional; conditions: NCTC 10400, 24 h, read-out: IZ
[7] = test system: Trichophyton mentagrophytes; experiment: Anti-fungal activity against Trichophyton mentagrophytes measured after 48 hrs by broth dilution method; type: functional; conditions: for MIC: Trichophyton mentagrophytes, 48 h
Tritrichomonas foetus = experiment: Anti-parasitic activity against Tritrichomonas foetus measured after 48 hrs by microscopic analysis; type: functional; conditions: for MIC: Tritrichomonas foetus, 48 h
Translocator protein [8] = molecular target: T1, Translocator protein (Rattus norvegicus, UniProt P16257); experiment: Displacement of [3H]Ro5-4864 from PBZR in rat kidney mitochondrial membranes measured after 90 mins by liquid scintillation counting; type: cell membranes
T1 sequence (P16257 whole entry, looked up): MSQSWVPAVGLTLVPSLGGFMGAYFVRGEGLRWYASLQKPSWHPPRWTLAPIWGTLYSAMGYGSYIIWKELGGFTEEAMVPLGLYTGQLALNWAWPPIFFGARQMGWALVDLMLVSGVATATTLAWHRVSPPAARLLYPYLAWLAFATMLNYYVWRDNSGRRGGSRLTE

Translocator protein [9] = molecular target: T1, Translocator protein; experiment: Displacement of [3H]PK11195 from PBZR in rat kidney mitochondrial membranes measured after 90 mins by liquid scintillation counting; type: cell membranes
[10] = test system: Syncephalastrum racemosum; experiment: Antifungal activity against Syncephalastrum racemosum 005004 assessed as zone of inhibition at 30 ug/ml; type: functional; conditions: read-out: IZ
Aspergillus fumigatus = experiment: Antifungal activity against Aspergillus fumigatus RCMB 002006 assessed as zone of inhibition at 30 ug/ml; type: functional; conditions: read-out: IZ
Bacillus subtilis [11] = experiment: Antibacterial activity against Bacillus subtilis RCMB 000109 assessed as zone of inhibition at 30 ug/ml; type: functional; conditions: read-out: IZ
Escherichia coli [12] = experiment: Antibacterial activity against Escherichia coli RCMB 000106 assessed as zone of inhibition at 30 ug/ml; type: functional; conditions: read-out: IZ
Staphylococcus aureus [13] = experiment: Antibacterial activity against Staphylococcus aureus RCMB 000108 assessed as zone of inhibition at 30 ug/ml; type: functional; conditions: read-out: IZ
Geotrichum candidum = experiment: Antifungal activity against Geotrichum candidum 052008 assessed as zone of inhibition at 30 ug/ml; type: functional; conditions: read-out: IZ
Ehrlich = experiment: Cytotoxicity against […] EAC cells by trypan blue staining based microscopic analysis; type: functional, cell-based, Mus musculus

SMILES: OC(Cn1cncn1)(Cn1cncn1)c1ccc(F)cc1F [FLUCONAZOLE]
- MIC (Pseudomonas aeruginosa): ≥ 800 µg/mL
- MIC (Escherichia coli [1]): ≥ 800 µg/mL
- MIC (Bacillus subtilis [2]): ≥ 800 µg/mL
- MIC (Staphylococcus aureus [3]): ≥ 800 µg/mL
- MIC (Candida albicans): ≤ 25 µg/mL

SMILES: Cc1nc(-c2ccccc2)sc1-c1ccn2nc(-c3ccccc3)cc2n1
- MIC (Pseudomonas aeruginosa): ≥ 800 µg/mL
- MIC (Escherichia coli [1]): ≥ 800 µg/mL
- MIC (Bacillus subtilis [2]): ≥ 800 µg/mL
- MIC (Staphylococcus aureus [3]): ≥ 800 µg/mL
- MIC (Candida albicans): ≥ 800 µg/mL

SMILES: O=C(O)c1cn(C2CC2)c2cc(N3CCNCC3)c(F)cc2c1=O [CIPROFLOXACIN]
- MIC (Pseudomonas aeruginosa): 400 µg/mL (≈ 1210 µM)
- MIC (Escherichia coli [1]): ≤ 25 µg/mL
- MIC (Bacillus subtilis [2]): ≤ 25 µg/mL
- MIC (Staphylococcus aureus [3]): ≤ 25 µg/mL
- MIC (Candida albicans): ≥ 800 µg/mL

SMILES: COc1ccc(NS(=O)(=O)c2ccc(/N=N/c3c(=O)[nH]n4c(-c5nccc(C)n5)c(C#N)c(N)nc34)cc2)cc1
- zone of inhibition at 1000 µg/mL (Serratia marcescens): 15 to 18 mm
- zone of inhibition at 1000 µg/mL (Sarcina): 15 to 18 mm
- zone of inhibition at 1000 µg/mL (Staphylococcus aureus [4]): 12 to 14 mm
- zone of inhibition at 1000 µg/mL (Escherichia coli [5]): 12 to 14 mm
- zone of inhibition at 1000 µg/mL (Bacillus subtilis [6]): 9 to 11 mm

SMILES: CCCCCCCCNc1cc(C)nc2ccnn12
- MLC [7]: 0.16 µmol/mL (≈ 41.7 µg/mL)
- MIC [7]: 20 µM (≈ 5.21 µg/mL)

SMILES: CCOC(=O)c1cn(CC)c2c([N+](=O)[O-])cnn2c1=O
- MLC (Tritrichomonas foetus): 3.2 µg/mL (≈ 11.4 µM)
- MIC (Tritrichomonas foetus): 1 µg/mL (≈ 3.57 µM)

SMILES: CCCCCCCC/C=C\CCCCCCCCNc1cc(C)nc2c(Br)cnn12
- MLC [7]: 0.02 µmol/mL (≈ 9.55 µg/mL)
- MIC [7]: 10 µM (≈ 4.78 µg/mL)

SMILES: COc1ccccc1NS(=O)(=O)c1ccc(/N=N/c2c(=O)[nH]n3c(-c4ncccn4)c(C#N)c(N)nc23)cc1
- zone of inhibition at 1000 µg/mL (Serratia marcescens): 12 to 14 mm
- zone of inhibition at 1000 µg/mL (Sarcina): 12 to 14 mm
- zone of inhibition at 1000 µg/mL (Staphylococcus aureus [4]): 15 to 18 mm
- zone of inhibition at 1000 µg/mL (Escherichia coli [5]): 12 to 14 mm
- zone of inhibition at 1000 µg/mL (Bacillus subtilis [6]): 15 to 18 mm

SMILES: Cc1nc(-c2ccccc2)sc1-c1ccn2ncc(-c3ccccc3)c2n1
- MIC (Pseudomonas aeruginosa): ≥ 400 µg/mL
- MIC (Escherichia coli [1]): ≥ 800 µg/mL
- MIC (Bacillus subtilis [2]): ≥ 400 µg/mL
- MIC (Staphylococcus aureus [3]): ≥ 800 µg/mL
- MIC (Candida albicans): ≥ 400 µg/mL

SMILES: CCC(CC)C(=O)Cc1c(-c2ccc(OC)cc2)nn2c(C)cc(C)nc12
- Ki (Translocator protein [8]): 3.1 nM
- Ki (Translocator protein [9]): 4.7 nM

SMILES: Cc1ncc([N+](=O)[O-])n1CCO [METRONIDAZOLE]
- MLC (Tritrichomonas foetus): 10 µg/mL (≈ 58.4 µM)
- MIC (Tritrichomonas foetus): 3.2 µg/mL (≈ 18.7 µM)

SMILES: COc1ccc(NS(=O)(=O)c2ccc(/N=N/c3c(=O)[nH]n4c(-c5ncccn5)c(C#N)c(N)nc34)cc2)cc1
- zone of inhibition at 1000 µg/mL (Serratia marcescens): 15 to 18 mm
- zone of inhibition at 1000 µg/mL (Sarcina): 15 to 18 mm
- zone of inhibition at 1000 µg/mL (Staphylococcus aureus [4]): 12 to 14 mm
- zone of inhibition at 1000 µg/mL (Escherichia coli [5]): 15 to 18 mm
- zone of inhibition at 1000 µg/mL (Bacillus subtilis [6]): 9 to 11 mm

SMILES: Nc1nn2c(-c3ccco3)cc(-c3ccco3)nc2c1/N=N/c1ccccc1
- zone of inhibition at 30 µg/mL [10]: 10.2 mm
- zone of inhibition at 30 µg/mL (Aspergillus fumigatus): 14.2 mm
- zone of inhibition at 30 µg/mL (Bacillus subtilis [11]): 15.7 mm
- zone of inhibition at 30 µg/mL (Escherichia coli [12]): 15.2 mm
- zone of inhibition at 30 µg/mL (Staphylococcus aureus [13]): 16.7 mm
- zone of inhibition at 30 µg/mL (Geotrichum candidum): 15.3 mm

SMILES: CCC(CC)C(=O)Cc1c(-c2ccc(C)cc2)nn2c(C)cc(C)nc12
- Ki (Translocator protein [8]): 1.7 nM
- Ki (Translocator protein [9]): 0.8 nM

SMILES: CCC(CC)C(=O)Cc1c(-c2ccc(Cl)cc2)nn2c(C)cc(-c3ccccc3)nc12
- Ki (Translocator protein [8]): 2.7 nM
- Ki (Translocator protein [9]): 3.4 nM

SMILES: Cc1nn2c(-c3ccccc3)ccnc2c1/N=N/c1c(C)n(C)n(-c2ccccc2)c1=O
- ED25 (Ehrlich): 70.2 µg/mL (≈ 166 µM)
- ED100 (Ehrlich): 99.8 µg/mL
- IC50 (Ehrlich; Mus musculus, Ehrlich): 3.13 µg/mL (≈ 7.39 µM)
- EC50 (Ehrlich; Mus musculus, Ehrlich, read-out: ED50 (the source's name)): 87.1 µg/mL (≈ 206 µM)

SMILES: CCC(CC)C(=O)Cc1c(-c2ccc(Cl)cc2)nn2c(C)cc(C)nc12
- Ki (Translocator protein [8]): 1.4 nM
- Ki (Translocator protein [9]): 2.4 nM

SMILES: Cc1nc(-c2ccccc2)sc1-c1ccn2nc(C#N)cc2n1
- MIC (Pseudomonas aeruginosa): ≥ 800 µg/mL
- MIC (Escherichia coli [1]): ≥ 800 µg/mL
- MIC (Bacillus subtilis [2]): ≥ 800 µg/mL
- MIC (Staphylococcus aureus [3]): ≥ 800 µg/mL
- MIC (Candida albicans): ≥ 400 µg/mL

SMILES: Cc1nc(-c2ccccc2)sc1-c1ccn2nc(C)c(-c3ccccc3)c2n1
- MIC (Pseudomonas aeruginosa): ≥ 800 µg/mL
- MIC (Escherichia coli [1]): ≥ 400 µg/mL
- MIC (Bacillus subtilis [2]): ≥ 400 µg/mL
- MIC (Staphylococcus aureus [3]): ≥ 800 µg/mL
- MIC (Candida albicans): ≥ 400 µg/mL

SMILES: COc1ccccc1NS(=O)(=O)c1ccc(/N=N/c2c(=O)[nH]n3cc(C#N)c(N)nc23)cc1
- zone of inhibition at 1000 µg/mL (Serratia marcescens): 12 to 14 mm
- zone of inhibition at 1000 µg/mL (Sarcina): 12 to 14 mm
- zone of inhibition at 1000 µg/mL (Staphylococcus aureus [4]): 9 to 11 mm
- zone of inhibition at 1000 µg/mL (Escherichia coli [5]): 12 to 14 mm
- zone of inhibition at 1000 µg/mL (Bacillus subtilis [6]): 15 to 18 mm
